Test results published in patent US20050197350A1, “Novel quinoline, tetrahydroquinazoline, and pyrimidine derivatives and methods of treatment related to the use thereof” (TAISHO PHARMACEUTICAL CO., LTD., priority 2003, published 2005).

These compounds were tested on MCH receptors (assay: MCH receptor activity class (method not given)). Details: class by percent of control at 10^-7 M or IC50.
CN(C)c1cc(N[C@H]2CC[C@@H](NC(=O)c3ccc(Br)o3)CC2)nc2ccccc12 [compound 694, 5-bromo-N-(cis-4-{[4-(dimethylamino)quinolin-2-yl]amino}cyclohexyl)-2-furamide] was tested, and the class was 1 (Class 1: The value of percent of control at 10^−7 M was less than 40% or the value of IC50 was less than 50 nM.).
With CN(C)c1cc(N[C@H]2CC[C@@H](NC(=O)CCC3CCCCC3)CC2)nc2ccccc12 [compound 695] the class was 3 (Class 3 The value of percent of control at 10^−7 M was more than 60% or the value of IC50 was more than 200 nM.).
With Cc1ccnc(SCC(=O)N[C@H]2CC[C@@H](Nc3cc(N(C)C)c4ccccc4n3)CC2)n1 [compound 696] the class was 3 (Class 3 The value of percent of control at 10^−7 M was more than 60% or the value of IC50 was more than 200 nM.).
In the case of CN(C)c1cc(N[C@H]2CC[C@@H](NC(=O)c3ccc(-c4ccc(Cl)cc4)o3)CC2)nc2ccccc12 [compound 697], the class is reported as 3 (Class 3 The value of percent of control at 10^−7 M was more than 60% or the value of IC50 was more than 200 nM.).
For CN(C)c1cc(N[C@H]2CC[C@@H](NC(=O)CCc3ccc(Cl)c(Cl)c3)CC2)nc2ccccc12 [compound 698], the class was 3 (Class 3 The value of percent of control at 10^−7 M was more than 60% or the value of IC50 was more than 200 nM.).
With CN(C)c1cc(N[C@H]2CC[C@@H](NC(=O)Cc3ccc(Cl)c(Cl)c3)CC2)nc2ccccc12 [compound 699] the class was 3 (Class 3 The value of percent of control at 10^−7 M was more than 60% or the value of IC50 was more than 200 nM.).
For COc1cc(CC(=O)N[C@H]2CC[C@@H](Nc3cc(N(C)C)c4ccccc4n3)CC2)cc(OC)c1O [compound 700], the class was 3 (Class 3 The value of percent of control at 10^−7 M was more than 60% or the value of IC50 was more than 200 nM.).
With CN(C)c1cc(N[C@H]2CC[C@@H](NC(=O)c3cc(Br)c(Br)s3)CC2)nc2ccccc12 [compound 701] the class was 2 (Class 2: The value of percent of control at 10^−7 M was from 40% to 60% or the value of IC′50 was from 50 nM to 200 nM.).
In the case of COc1cc(CC(=O)N[C@H]2CC[C@@H](Nc3cc(N(C)C)c4ccccc4n3)CC2)cc(OC)c1 [compound 702], the class is reported as 3 (Class 3 The value of percent of control at 10^−7 M was more than 60% or the value of IC50 was more than 200 nM.).
With CN(C)c1cc(N[C@H]2CC[C@@H](NC(=O)Cc3cc(C(C)(C)C)c(O)c(C(C)(C)C)c3)CC2)nc2ccccc12 [compound 703] the class was 3 (Class 3 The value of percent of control at 10^−7 M was more than 60% or the value of IC50 was more than 200 nM.).
With CN(C)c1cccc(C(=O)N[C@H]2CC[C@@H](Nc3cc(N(C)C)c4ccccc4n3)CC2)c1 [compound 705] the class was 3 (Class 3 The value of percent of control at 10^−7 M was more than 60% or the value of IC50 was more than 200 nM.).
With CN(C)c1cc(N[C@H]2CC[C@@H](NC(=O)c3cc(Br)c(Br)o3)CC2)nc2ccccc12 [compound 706] the class was 1 (Class 1: The value of percent of control at 10^−7 M was less than 40% or the value of IC50 was less than 50 nM.).
In the case of CN(C)c1cc(N[C@H]2CC[C@@H](NC(=O)CCC(=O)c3ccc(F)cc3)CC2)nc2ccccc12 [compound 707], the class is reported as 3 (Class 3 The value of percent of control at 10^−7 M was more than 60% or the value of IC50 was more than 200 nM.).
In the case of CN(C)c1cc(N[C@H]2CC[C@@H](NC(=O)[C@H](Cc3cn(Cc4ccccc4)cn3)NC(=O)OC(C)(C)C)CC2)nc2ccccc12 [compound 709], the class is reported as 3 (Class 3 The value of percent of control at 10^−7 M was more than 60% or the value of IC50 was more than 200 nM.).
With CN(C)c1cc(N[C@H]2CC[C@@H](NC(=O)Cc3c[nH]c4ccccc34)CC2)nc2ccccc12 [compound 711, N-(cis-4-{[4-(dimethylamino)quinolin-2-yl]amino}cyclohexyl)-2-(1H-indol-3-yl)acetamide] the class was 1 (Class 1: The value of percent of control at 10^−7 M was less than 40% or the value of IC50 was less than 50 nM.).
In the case of Cc1sc(-c2ccccc2)nc1CC(=O)N[C@H]1CC[C@@H](Nc2cc(N(C)C)c3ccccc3n2)CC1 [compound 712], the class is reported as 3 (Class 3 The value of percent of control at 10^−7 M was more than 60% or the value of IC50 was more than 200 nM.).
For COc1ccc(CSC2(CC(=O)N[C@H]3CC[C@@H](Nc4cc(N(C)C)c5ccccc5n4)CC3)CCCCC2)cc1 [compound 714], the class was 3 (Class 3 The value of percent of control at 10^−7 M was more than 60% or the value of IC50 was more than 200 nM.).
With COc1ccc2c(CC(=O)N[C@H]3CC[C@@H](Nc4cc(N(C)C)c5ccccc5n4)CC3)cc(=O)oc2c1 [compound 715] the class was 3 (Class 3 The value of percent of control at 10^−7 M was more than 60% or the value of IC50 was more than 200 nM.).
Cc1cc(C)c(NC(=O)Nc2ccc(OC(F)(F)F)cc2)c(C(=O)N[C@H]2CC[C@@H](Nc3cc(N(C)C)c4ccccc4n3)CC2)c1 [compound 718] was tested, and the class was 3 (Class 3 The value of percent of control at 10^−7 M was more than 60% or the value of IC50 was more than 200 nM.).
For CN(C)c1cc(N[C@H]2CC[C@@H](NC(=O)c3cc(Cl)cc(Cl)c3NC(=O)C#Cc3ccccc3)CC2)nc2ccccc12 [compound 719], the class was 3 (Class 3 The value of percent of control at 10^−7 M was more than 60% or the value of IC50 was more than 200 nM.).
With CN(C)c1cc(N[C@H]2CC[C@@H](NC(=O)Cc3ccccc3C(=O)Nc3ccc(Cl)cc3Cl)CC2)nc2ccccc12 [compound 723] the class was 3 (Class 3 The value of percent of control at 10^−7 M was more than 60% or the value of IC50 was more than 200 nM.).
For Cc1c(C(=O)N[C@H]2CC[C@@H](Nc3cc(N(C)C)c4ccccc4n3)CC2)cc(-c2ccccc2)n1CCCN1CCOCC1 [compound 724], the class was 3 (Class 3 The value of percent of control at 10^−7 M was more than 60% or the value of IC50 was more than 200 nM.).
With CN(C)c1cc(N[C@H]2CC[C@@H](NC(=O)CCCc3ccc([N+](=O)[O-])cc3)CC2)nc2ccccc12 [compound 725] the class was 3 (Class 3 The value of percent of control at 10^−7 M was more than 60% or the value of IC50 was more than 200 nM.).
CN(C)c1cc(N[C@H]2CC[C@@H](NC(=O)/C=C/c3ccccc3[N+](=O)[O-])CC2)nc2ccccc12 [compound 726] was tested, and the class was 3 (Class 3 The value of percent of control at 10^−7 M was more than 60% or the value of IC50 was more than 200 nM.).
With CN(C)c1cc(N[C@H]2CC[C@@H](NC(=O)Cc3cccc(Oc4ccccc4)c3)CC2)nc2ccccc12 [compound 727] the class was 3 (Class 3 The value of percent of control at 10^−7 M was more than 60% or the value of IC50 was more than 200 nM.).
For CN(C)c1cc(N[C@H]2CC[C@@H](NC(=O)Cc3ccc(Oc4ccccc4)cc3)CC2)nc2ccccc12 [compound 728], the class was 3 (Class 3 The value of percent of control at 10^−7 M was more than 60% or the value of IC50 was more than 200 nM.).
In the case of CN(C)c1cc(N[C@H]2CC[C@@H](NC(=O)Cc3c(-c4ccccc4)[nH]c4ccccc34)CC2)nc2ccccc12 [compound 729, N-(cis-4-{[4-(dimethylamino)quinolin-2-yl]amino}cyclohexyl)-2-(2-phenyl-1H-indol-3-yl)acetamide], the class is reported as 2 (Class 2: The value of percent of control at 10^−7 M was from 40% to 60% or the value of IC′50 was from 50 nM to 200 nM.).
CN(C)c1cc(N[C@H]2CC[C@@H](NC(=O)c3cccc(Oc4ccccc4)c3)CC2)nc2ccccc12 [compound 731] was tested, and the class was 3 (Class 3 The value of percent of control at 10^−7 M was more than 60% or the value of IC50 was more than 200 nM.).
